Experimental data from PMC6100568, “Novel Uridine Glycoconjugates, Derivatives of 4-Aminophenyl 1-Thioglycosides, as Potential Antiviral Compounds” (Molecules : A Journal of Synthetic Chemistry and Natural …, 2018).
Entries after “also recorded” stand apart in the source; their conditions may differ. Read-outs that look alike come from different tables or passages of the source.

What was measured:
[1] = test system: classical swine fever virus (CSFV); experiment: microbe, parasite or virus in culture
[2] = test system: swine kidney (SK6) cells
[3] = test system: HCVcc (Jc1/JFH genotype 2a); experiment: HCVcc pseudo-plaque reduction assay (IPMA) in Huh-7.5 cells; details: for SI (CC50/IC50): HCV (Huh-7.5 cells); for IC50: Hepatitis C virus, Huh7.5
[4] = MTT cell viability assay in non-infected Huh-7.5 cells; details: human
[5] = in vitro; details: swine
[6] = test system: classical swine fever virus (CSFV)
[7] = target: T1, β-1,4GalT (Bos taurus, UniProt P08037); experiment: Bovine milk β-1,4GalT I assay (RP-HPLC, fluorescence); format: biochemical; details: for ability to inhibit β-1,4GalT activity: 0.8 mM
T1 construct: purchased; host or cells: bovine milk
T1 sequence (P08037 78-402 limits assumed): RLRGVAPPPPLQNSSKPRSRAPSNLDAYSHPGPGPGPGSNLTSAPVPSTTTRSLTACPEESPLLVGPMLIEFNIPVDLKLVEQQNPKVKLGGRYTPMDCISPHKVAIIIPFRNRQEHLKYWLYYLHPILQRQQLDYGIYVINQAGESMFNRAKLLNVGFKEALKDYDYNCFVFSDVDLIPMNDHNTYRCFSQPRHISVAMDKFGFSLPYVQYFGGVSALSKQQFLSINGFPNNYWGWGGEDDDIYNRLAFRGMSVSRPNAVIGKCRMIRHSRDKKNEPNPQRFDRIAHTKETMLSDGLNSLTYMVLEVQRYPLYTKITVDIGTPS

[8] = test system: HCVcc (Jc1/JFH genotype 2a); details: cited from earlier work
[9] = test system: classical swine fever virus (CSFV); details: cited from earlier work
[10] = test system: Huh-7.5 cells; details: cited from earlier work
[11] = test system: swine kidney (SK6) cells; details: cited from earlier work
[12] = test system: viral genome replication; details: cited from earlier work
[13] = test system: HCVcc genotype 2a JFH-1 strain; experiment: SEAP reporter assay in Huh7-J20 cells, three infection models (time-of-drug addition); format: cell-based, hepatitis C virus; details: SEAP level; for effect on virus entry (Model 1): 1 h pre-treatment + 3 h infection with compound, then 72 h without; for antiviral activity in post-viral entry model (Model 3): compound added after 3 h infection for 72 h; for antiviral activity in full life cycle (Model 2): compound present before, during and 72 h after infection
[14] = in vitro; details: human
[15] = test system: HCV replication (Huh7-J17 replicon); experiment: HCV replicon Huh7-J17 luciferase assay; format: cell-based; details: Hepatitis C virus; Huh7-J17 replicon cells, 72 h; read-out: IC50 (inhibition of HCV RNA replication, luciferase activity)
[16] = test system: HCV viral RNA (NS5B gene); format: cell-based, hepatitis C virus
[17] = test system: Huh7-J17 cells; details: human
[18] = test system: Huh-7.5 cells; experiment: MTT cell viability assay in non-infected Huh-7.5 cells; details: concentration reducing cell viability by 50%, mean ± S.D.

SMILES	IC50 [1] [µM]	SI (CC50/IC50) [3]	IC50 [3] [µM]	CC50 [4] [µM]	CC50 [5] [µM]	SI (CC50/IC50) [6]	also measured
CC(=O)OC[C@H]1O[C@@H](Sc2ccc(NC(=O)CCC(=O)OC[C@H]3O[C@@H](n4ccc(=O)[nH]c4=O)[C@H](O[Si](C)(C)C(C)(C)C)[C@@H]3O[Si](C)(C)C(C)(C)C)cc2)[C@H](OC(C)=O)[C@@H](OC(C)=O)[C@@H]1OC(C)=O [Compound 8]	4.5 ± 0.3	4	4 ± 0.2	16 ± 1.1	42 ± 1.9	9.3	cytotoxicity in words [2]: relatively toxic
CC(=O)OC[C@H]1O[C@@H](Sc2ccc(NC(=O)[C@H]3O[C@@H](n4ccc(=O)[nH]c4=O)[C@@H]4OC(C)(C)O[C@@H]43)cc2)[C@H](OC(C)=O)[C@@H](OC(C)=O)[C@@H]1OC(C)=O [Compound 10]	149 ± 6.1	1.7	154 ± 2.8	258 ± 6.2	326 ± 11.2	2.2	–
O=C(Nc1ccc(S[C@@H]2O[C@H](CO)[C@H](O)[C@H](O)[C@H]2O)cc1)[C@H]1O[C@@H](n2ccc(=O)[nH]c2=O)[C@H](O)[C@@H]1O [Compound 15]	257 ± 6.9	1.0	454 ± 9.8	460 ± 9.3	278 ± 4.3	1.1	ability to inhibit β-1,4GalT activity [7]: demonstrated the ability of β-1,4GalT inhibition; reduction of enzyme activity ([7]; maximum test concentration of 0.8 mM): 10%
CC(=O)OC[C@H]1O[C@@H](Sc2ccc(NC(=O)CCC(=O)OC[C@H]3O[C@@H](n4ccc(=O)[nH]c4=O)[C@@H]4OC(C)(C)O[C@@H]43)cc2)[C@H](OC(C)=O)[C@@H](OC(C)=O)[C@@H]1OC(C)=O [Compound 7]	97 ± 2	1.4	281 ± 4.7	399 ± 11.4	103 ± 5.9	1.1	–
O=C(Nc1ccc(S[C@@H]2O[C@H](CO)[C@@H](O)[C@H](O)[C@H]2O)cc1)[C@H]1O[C@@H](n2ccc(=O)[nH]c2=O)[C@H](O)[C@@H]1O [Compound 14]	241 ± 9.2	>1.1	444 ± 12.4	> 475	256	1.1	CC50 ([2]; swine): 265 ± 8.6 µM; ability to inhibit β-1,4GalT activity [7]: demonstrated the ability of β-1,4GalT inhibition; also recorded: able to inhibit; IC50 ([7]; inhibitor 0.1–0.8 mM, UDP-Gal donor, esculine acceptor): 330 µM
CC(=O)OC[C@H]1O[C@@H](Sc2ccc(NC(=O)[C@H]3O[C@@H](n4ccc(=O)[nH]c4=O)[C@H](O[Si](C)(C)C(C)(C)C)[C@@H]3O[Si](C)(C)C(C)(C)C)cn2)[C@H](OC(C)=O)[C@@H](OC(C)=O)[C@H]1OC(C)=O [II]	–	–	–	–	–	–	IC50 [8]: 7 ± 0.4 µM; SI (CC50/IC50) [8]: 24.7; IC50 [9]: 6 ± 0.4 µM; SI (CC50/IC50) [9]: 25.2; CC50 [10]: 173 ± 3.2 µM; CC50 [11]: 151 ± 3.1 µM; reduction of viral genome replication [12]: up to 90%
CC(=O)OC[C@H]1O[C@@H](Sc2ccc(NC(=O)[C@H]3O[C@@H](n4ccc(=O)[nH]c4=O)[C@H](O[Si](C)(C)C(C)(C)C)[C@@H]3O[Si](C)(C)C(C)(C)C)cc2)[C@H](OC(C)=O)[C@@H](OC(C)=O)[C@@H]1OC(C)=O [Compound 12]	4 ± 0.1	20.0	13.5 ± 0.7	270 ± 2.9	56 ± 4.3	–	effect on virus entry (Model 1) [13]: none of the tested compounds targeted virus entry; also recorded: neither compound affected viral entry; antiviral activity in post-viral entry model (Model 3) [13]: strong antiviral activity; antiviral activity in full life cycle (Model 2) [13]: strong antiviral activity; cytotoxicity in words [2]: relatively toxic; CC50 [14]: 130 µM; IC50 [15]: 4.24 µM; amount of viral RNA (NS5B RT-PCR) [16]: significant dose-dependent inhibition
CC(=O)OC[C@H]1O[C@@H](Sc2ccc(NC(=O)[C@H]3O[C@@H](n4ccc(=O)[nH]c4=O)[C@H](O[Si](C)(C)C(C)(C)C)[C@@H]3O[Si](C)(C)C(C)(C)C)cn2)[C@H](OC(C)=O)[C@@H](OC(C)=O)[C@@H]1OC(C)=O [I]	–	–	–	–	–	–	IC50 [8]: 7 ± 0.7 µM; SI (CC50/IC50) [8]: 19.3; IC50 [9]: 3 ± 0.1 µM; SI (CC50/IC50) [9]: 28.7; CC50 [10]: 135 ± 2.4 µM; CC50 [11]: 86 ± 2.4 µM; reduction of viral genome replication [12]: up to 90%
CC(=O)OC[C@H]1O[C@@H](Sc2ccc(NC(=O)[C@H]3O[C@@H](n4ccc(=O)[nH]c4=O)[C@@H]4OC(C)(C)O[C@@H]43)cc2)[C@H](OC(C)=O)[C@@H](OC(C)=O)[C@H]1OC(C)=O [Compound 11]	217 ± 3.9	1.6	167 ± 3.1	272 ± 4.5	340 ± 9.1	1.6	–
CC(=O)OC[C@H]1O[C@@H](Sc2ccc(NC(=O)[C@H]3O[C@@H](n4ccc(=O)[nH]c4=O)[C@H](O[Si](C)(C)C(C)(C)C)[C@@H]3O[Si](C)(C)C(C)(C)C)cc2)[C@H](OC(C)=O)[C@@H](OC(C)=O)[C@H]1OC(C)=O [Compound 13]	25 ± 0.9	1.9	7.4 ± 0.2	14 ± 0.9	49 ± 3.5	2.0	cytotoxicity in words [2]: relatively toxic
CC(C)OC(=O)[C@H](C)N[P@](=O)(OC[C@H]1O[C@@H](n2ccc(=O)[nH]c2=O)[C@](C)(F)[C@@H]1O)Oc1ccccc1 [SOFOSBUVIR, sofosbuvir, reference compound]	–	119.2	0.26 ± 0.02	–	–	–	effect on virus entry (Model 1) [13]: no effect on virus entry; antiviral activity in post-viral entry model (Model 3) [13]: exerts its antiviral activity effect; antiviral activity in full life cycle (Model 2) [13]: exerts its antiviral activity effect; IC50 [15]: 0.028 µM; CC50 [17]: 23.5 µM; CC50 [18]: 31 ± 1.2 µM
CC(=O)OC[C@H]1O[C@@H](Sc2ccc(NC(=O)CCC(=O)OC[C@H]3O[C@@H](n4ccc(=O)[nH]c4=O)[C@H](O[Si](C)(C)C(C)(C)C)[C@@H]3O[Si](C)(C)C(C)(C)C)cc2)[C@H](OC(C)=O)[C@@H](OC(C)=O)[C@H]1OC(C)=O [Compound 9]	4.2 ± 0.5	52.4	4.9 ± 0.3	257 ± 5.7	124 ± 6.8	29.5	effect on virus entry (Model 1) [13]: none of the tested compounds targeted virus entry; also recorded: neither compound affected viral entry; antiviral activity in post-viral entry model (Model 3) [13]: strong antiviral activity; antiviral activity in full life cycle (Model 2) [13]: strong antiviral activity; CC50 [14]: 133 µM; IC50 [15]: 4.18 µM; inhibition of viral HCV replication (pseudo-plaques) ([3]; Huh-7.5 cells, 4–10 µM, Figure 2): dose-dependent inhibition; amount of viral RNA (NS5B RT-PCR) [16]: significant dose-dependent inhibition; inhibition of CSFV propagation (size and number of pseudo-plaques) [6]: dose-dependent inhibition
